From ChEMBL document CHEMBL1255447, “Efflux pumps, OprD porin, AmpC beta-lactamase, and multiresistance in Pseudomonas aeruginosa isolates from cystic fibrosis patients” (2010)
≈ marks a conversion by molar mass, not a printed value.

Tested on: Pseudomonas aeruginosa
Assay: Antimicrobial activity against Pseudomonas aeruginosa isolate 1681c from fibrosis patient by Etest
Assay type: functional
Details: not given

Compound	MIC
NC[C@H]1O[C@H](O[C@H]2[C@H](O)[C@@H](O[C@H]3O[C@H](CO)[C@@H](O)[C@H](N)[C@H]3O)[C@H](N)C[C@@H]2N)[C@H](N)C[C@@H]1O [TOBRAMYCIN]	16 µg/mL (≈ 34.2 µM)

Tested on: Pseudomonas aeruginosa
Assay: Antimicrobial activity against Pseudomonas aeruginosa isolate 1665 from fibrosis patient by Etest
Assay type: functional
Details: not given

Compound	MIC
NC[C@H]1O[C@H](O[C@H]2[C@H](O)[C@@H](O[C@H]3O[C@H](CO)[C@@H](O)[C@H](N)[C@H]3O)[C@H](N)C[C@@H]2N)[C@H](N)C[C@@H]1O [TOBRAMYCIN]	32 µg/mL (≈ 68.4 µM)

Tested on: Pseudomonas aeruginosa
Assay: Antimicrobial activity against Pseudomonas aeruginosa isolate 17112 from fibrosis patient by Etest
Assay type: functional
Details: not given

Compound	MIC
NC[C@H]1O[C@H](O[C@H]2[C@H](O)[C@@H](O[C@H]3O[C@H](CO)[C@@H](O)[C@H](N)[C@H]3O)[C@H](N)C[C@@H]2N)[C@H](N)C[C@@H]1O [TOBRAMYCIN]	0.5 µg/mL (≈ 1.07 µM)

Tested on: Pseudomonas aeruginosa
Assay: Antimicrobial activity against Pseudomonas aeruginosa isolate 14169c from fibrosis patient by Etest
Assay type: functional
Details: not given

Compound	MIC
NC[C@H]1O[C@H](O[C@H]2[C@H](O)[C@@H](O[C@H]3O[C@H](CO)[C@@H](O)[C@H](N)[C@H]3O)[C@H](N)C[C@@H]2N)[C@H](N)C[C@@H]1O [TOBRAMYCIN]	4 µg/mL (≈ 8.56 µM)

Tested on: Pseudomonas aeruginosa
Assay: Antimicrobial activity against Pseudomonas aeruginosa isolate 1352c from fibrosis patient by Etest
Assay type: functional
Details: not given

Compound	MIC
NC[C@H]1O[C@H](O[C@H]2[C@H](O)[C@@H](O[C@H]3O[C@H](CO)[C@@H](O)[C@H](N)[C@H]3O)[C@H](N)C[C@@H]2N)[C@H](N)C[C@@H]1O [TOBRAMYCIN]	16 µg/mL (≈ 34.2 µM)

Tested on: Pseudomonas aeruginosa
Assay: Antimicrobial activity against Pseudomonas aeruginosa R70 Etest
Assay type: functional
Details: not given

Compound	MIC
NC[C@H]1O[C@H](O[C@H]2[C@H](O)[C@@H](O[C@H]3O[C@H](CO)[C@@H](O)[C@H](N)[C@H]3O)[C@H](N)C[C@@H]2N)[C@H](N)C[C@@H]1O [TOBRAMYCIN]	0.5 µg/mL (≈ 1.07 µM)

Tested on: Pseudomonas aeruginosa
Assay: Antimicrobial activity against Pseudomonas aeruginosa isolate 17145c from fibrosis patient by Etest
Assay type: functional
Details: not given

Compound	MIC
NC[C@H]1O[C@H](O[C@H]2[C@H](O)[C@@H](O[C@H]3O[C@H](CO)[C@@H](O)[C@H](N)[C@H]3O)[C@H](N)C[C@@H]2N)[C@H](N)C[C@@H]1O [TOBRAMYCIN]	16 µg/mL (≈ 34.2 µM)

Tested on: Pseudomonas aeruginosa
Assay: Antimicrobial activity against Pseudomonas aeruginosa isolate 16008 from fibrosis patient by Etest
Assay type: functional
Details: not given

Compound	MIC
NC[C@H]1O[C@H](O[C@H]2[C@H](O)[C@@H](O[C@H]3O[C@H](CO)[C@@H](O)[C@H](N)[C@H]3O)[C@H](N)C[C@@H]2N)[C@H](N)C[C@@H]1O [TOBRAMYCIN]	4 µg/mL (≈ 8.56 µM)

Tested on: Pseudomonas aeruginosa
Assay: Antimicrobial activity against Pseudomonas aeruginosa isolate 12102 from fibrosis patient by Etest
Assay type: functional
Details: not given

Compound	MIC
NC[C@H]1O[C@H](O[C@H]2[C@H](O)[C@@H](O[C@H]3O[C@H](CO)[C@@H](O)[C@H](N)[C@H]3O)[C@H](N)C[C@@H]2N)[C@H](N)C[C@@H]1O [TOBRAMYCIN]	1 µg/mL (≈ 2.14 µM)

Tested on: Pseudomonas aeruginosa
Assay: Antimicrobial activity against Pseudomonas aeruginosa isolate 1726 from fibrosis patient by Etest
Assay type: functional
Details: not given

Compound	MIC
NC[C@H]1O[C@H](O[C@H]2[C@H](O)[C@@H](O[C@H]3O[C@H](CO)[C@@H](O)[C@H](N)[C@H]3O)[C@H](N)C[C@@H]2N)[C@H](N)C[C@@H]1O [TOBRAMYCIN]	0.5 µg/mL (≈ 1.07 µM)

Tested on: Pseudomonas aeruginosa
Assay: Antimicrobial activity against Pseudomonas aeruginosa R20 Etest
Assay type: functional
Details: not given

Compound	MIC
NC[C@H]1O[C@H](O[C@H]2[C@H](O)[C@@H](O[C@H]3O[C@H](CO)[C@@H](O)[C@H](N)[C@H]3O)[C@H](N)C[C@@H]2N)[C@H](N)C[C@@H]1O [TOBRAMYCIN]	0.5 µg/mL (≈ 1.07 µM)

Tested on: Pseudomonas aeruginosa
Assay: Antimicrobial activity against Pseudomonas aeruginosa 1405-con D2 by Etest
Assay type: functional
Details: not given

Compound	MIC
NC[C@H]1O[C@H](O[C@H]2[C@H](O)[C@@H](O[C@H]3O[C@H](CO)[C@@H](O)[C@H](N)[C@H]3O)[C@H](N)C[C@@H]2N)[C@H](N)C[C@@H]1O [TOBRAMYCIN]	2 µg/mL (≈ 4.28 µM)

Tested on: Pseudomonas aeruginosa
Assay: Antimicrobial activity against Pseudomonas aeruginosa isolate 1712c from fibrosis patient by Etest
Assay type: functional
Details: not given

Compound	MIC
NC[C@H]1O[C@H](O[C@H]2[C@H](O)[C@@H](O[C@H]3O[C@H](CO)[C@@H](O)[C@H](N)[C@H]3O)[C@H](N)C[C@@H]2N)[C@H](N)C[C@@H]1O [TOBRAMYCIN]	16 µg/mL (≈ 34.2 µM)

Tested on: Pseudomonas aeruginosa
Assay: microbe, parasite or virus in culture
Details: isolate 13120
Description: Antimicrobial activity against Pseudomonas aeruginosa isolate 13120 from fibrosis patient by Etest

Compound	MIC
NC[C@H]1O[C@H](O[C@H]2[C@H](O)[C@@H](O[C@H]3O[C@H](CO)[C@@H](O)[C@H](N)[C@H]3O)[C@H](N)C[C@@H]2N)[C@H](N)C[C@@H]1O [TOBRAMYCIN]	0.25 µg/mL (≈ 0.535 µM)

Tested on: Pseudomonas aeruginosa
Assay: Antimicrobial activity against Pseudomonas aeruginosa isolate 1248c from fibrosis patient by Etest
Assay type: functional
Details: not given

Compound	MIC
NC[C@H]1O[C@H](O[C@H]2[C@H](O)[C@@H](O[C@H]3O[C@H](CO)[C@@H](O)[C@H](N)[C@H]3O)[C@H](N)C[C@@H]2N)[C@H](N)C[C@@H]1O [TOBRAMYCIN]	32 µg/mL (≈ 68.4 µM)

Tested on: Pseudomonas aeruginosa
Assay: Antimicrobial activity against Pseudomonas aeruginosa isolate 3149 from fibrosis patient by Etest
Assay type: functional
Details: not given

Compound	MIC
NC[C@H]1O[C@H](O[C@H]2[C@H](O)[C@@H](O[C@H]3O[C@H](CO)[C@@H](O)[C@H](N)[C@H]3O)[C@H](N)C[C@@H]2N)[C@H](N)C[C@@H]1O [TOBRAMYCIN]	> 32 µg/mL

Tested on: Pseudomonas aeruginosa
Assay: microbe, parasite or virus in culture
Details: 2779-con
Description: Antimicrobial activity against Pseudomonas aeruginosa 2779-con by Etest

Compound	MIC
NC[C@H]1O[C@H](O[C@H]2[C@H](O)[C@@H](O[C@H]3O[C@H](CO)[C@@H](O)[C@H](N)[C@H]3O)[C@H](N)C[C@@H]2N)[C@H](N)C[C@@H]1O [TOBRAMYCIN]	1 µg/mL (≈ 2.14 µM)

Tested on: Pseudomonas aeruginosa
Assay: Antimicrobial activity against Pseudomonas aeruginosa isolate 1240 from fibrosis patient by Etest
Assay type: functional
Details: not given

Compound	MIC
NC[C@H]1O[C@H](O[C@H]2[C@H](O)[C@@H](O[C@H]3O[C@H](CO)[C@@H](O)[C@H](N)[C@H]3O)[C@H](N)C[C@@H]2N)[C@H](N)C[C@@H]1O [TOBRAMYCIN]	0.5 µg/mL (≈ 1.07 µM)

Tested on: Pseudomonas aeruginosa
Assay: Antimicrobial activity against Pseudomonas aeruginosa isolate 12142c from fibrosis patient by Etest
Assay type: functional
Details: not given

Compound	MIC
NC[C@H]1O[C@H](O[C@H]2[C@H](O)[C@@H](O[C@H]3O[C@H](CO)[C@@H](O)[C@H](N)[C@H]3O)[C@H](N)C[C@@H]2N)[C@H](N)C[C@@H]1O [TOBRAMYCIN]	> 32 µg/mL

Tested on: Pseudomonas aeruginosa
Assay: Antimicrobial activity against Pseudomonas aeruginosa isolate 1495c from fibrosis patient by Etest
Assay type: functional
Details: not given

Compound	MIC
NC[C@H]1O[C@H](O[C@H]2[C@H](O)[C@@H](O[C@H]3O[C@H](CO)[C@@H](O)[C@H](N)[C@H]3O)[C@H](N)C[C@@H]2N)[C@H](N)C[C@@H]1O [TOBRAMYCIN]	8 µg/mL (≈ 17.1 µM)

Tested on: Pseudomonas aeruginosa
Assay: Antimicrobial activity against Pseudomonas aeruginosa Z799/61 by Etest
Assay type: functional
Details: not given

Compound	MIC
NC[C@H]1O[C@H](O[C@H]2[C@H](O)[C@@H](O[C@H]3O[C@H](CO)[C@@H](O)[C@H](N)[C@H]3O)[C@H](N)C[C@@H]2N)[C@H](N)C[C@@H]1O [TOBRAMYCIN]	0.25 µg/mL (≈ 0.535 µM)

Tested on: Pseudomonas aeruginosa
Assay: Antimicrobial activity against Pseudomonas aeruginosa isolate 1333c from fibrosis patient by Etest
Assay type: functional
Details: not given

Compound	MIC
NC[C@H]1O[C@H](O[C@H]2[C@H](O)[C@@H](O[C@H]3O[C@H](CO)[C@@H](O)[C@H](N)[C@H]3O)[C@H](N)C[C@@H]2N)[C@H](N)C[C@@H]1O [TOBRAMYCIN]	8 µg/mL (≈ 17.1 µM)

Tested on: Pseudomonas aeruginosa
Assay: Antimicrobial activity against Pseudomonas aeruginosa M1251 by Etest
Details: not given

Compound	MIC
NC[C@H]1O[C@H](O[C@H]2[C@H](O)[C@@H](O[C@H]3O[C@H](CO)[C@@H](O)[C@H](N)[C@H]3O)[C@H](N)C[C@@H]2N)[C@H](N)C[C@@H]1O [TOBRAMYCIN]	0.25 µg/mL (≈ 0.535 µM)

Tested on: Pseudomonas aeruginosa
Assay: Antimicrobial activity against Pseudomonas aeruginosa AHP Etest
Assay type: functional
Details: not given

Compound	MIC
NC[C@H]1O[C@H](O[C@H]2[C@H](O)[C@@H](O[C@H]3O[C@H](CO)[C@@H](O)[C@H](N)[C@H]3O)[C@H](N)C[C@@H]2N)[C@H](N)C[C@@H]1O [TOBRAMYCIN]	≤ 0.12 µg/mL

Tested on: Pseudomonas aeruginosa
Assay: Antimicrobial activity against Pseudomonas aeruginosa isolate 15110c from fibrosis patient by Etest
Assay type: functional
Details: not given

Compound	MIC
NC[C@H]1O[C@H](O[C@H]2[C@H](O)[C@@H](O[C@H]3O[C@H](CO)[C@@H](O)[C@H](N)[C@H]3O)[C@H](N)C[C@@H]2N)[C@H](N)C[C@@H]1O [TOBRAMYCIN]	> 32 µg/mL

Tested on: Pseudomonas aeruginosa
Assay: Antimicrobial activity against Pseudomonas aeruginosa isolate 1253 from fibrosis patient by Etest
Assay type: functional
Details: not given

Compound	MIC
NC[C@H]1O[C@H](O[C@H]2[C@H](O)[C@@H](O[C@H]3O[C@H](CO)[C@@H](O)[C@H](N)[C@H]3O)[C@H](N)C[C@@H]2N)[C@H](N)C[C@@H]1O [TOBRAMYCIN]	4 µg/mL (≈ 8.56 µM)

Tested on: Pseudomonas aeruginosa
Assay: Antimicrobial activity against Pseudomonas aeruginosa isolate 1529c from fibrosis patient by Etest
Assay type: functional
Details: not given

Compound	MIC
NC[C@H]1O[C@H](O[C@H]2[C@H](O)[C@@H](O[C@H]3O[C@H](CO)[C@@H](O)[C@H](N)[C@H]3O)[C@H](N)C[C@@H]2N)[C@H](N)C[C@@H]1O [TOBRAMYCIN]	16 µg/mL (≈ 34.2 µM)

Tested on: Pseudomonas aeruginosa
Assay: Antimicrobial activity against Pseudomonas aeruginosa isolate 1530c from fibrosis patient by Etest
Assay type: functional
Details: not given

Compound	MIC
NC[C@H]1O[C@H](O[C@H]2[C@H](O)[C@@H](O[C@H]3O[C@H](CO)[C@@H](O)[C@H](N)[C@H]3O)[C@H](N)C[C@@H]2N)[C@H](N)C[C@@H]1O [TOBRAMYCIN]	4 µg/mL (≈ 8.56 µM)

Tested on: Pseudomonas aeruginosa
Assay: Antimicrobial activity against Pseudomonas aeruginosa isolate 1247c from fibrosis patient by Etest
Assay type: functional
Details: not given

Compound	MIC
NC[C@H]1O[C@H](O[C@H]2[C@H](O)[C@@H](O[C@H]3O[C@H](CO)[C@@H](O)[C@H](N)[C@H]3O)[C@H](N)C[C@@H]2N)[C@H](N)C[C@@H]1O [TOBRAMYCIN]	8 µg/mL (≈ 17.1 µM)

Tested on: Pseudomonas aeruginosa
Assay: Antimicrobial activity against Pseudomonas aeruginosa isolate 13167 from fibrosis patient by Etest
Assay type: functional
Details: not given

Compound	MIC
NC[C@H]1O[C@H](O[C@H]2[C@H](O)[C@@H](O[C@H]3O[C@H](CO)[C@@H](O)[C@H](N)[C@H]3O)[C@H](N)C[C@@H]2N)[C@H](N)C[C@@H]1O [TOBRAMYCIN]	4 µg/mL (≈ 8.56 µM)

Tested on: Pseudomonas aeruginosa
Assay: Antimicrobial activity against Pseudomonas aeruginosa isolate 1693c from fibrosis patient by Etest
Assay type: functional
Details: not given

Compound	MIC
NC[C@H]1O[C@H](O[C@H]2[C@H](O)[C@@H](O[C@H]3O[C@H](CO)[C@@H](O)[C@H](N)[C@H]3O)[C@H](N)C[C@@H]2N)[C@H](N)C[C@@H]1O [TOBRAMYCIN]	2 µg/mL (≈ 4.28 µM)

Tested on: Pseudomonas aeruginosa
Assay: Antimicrobial activity against Pseudomonas aeruginosa isolate 15107 from fibrosis patient by Etest
Assay type: functional
Details: not given

Compound	MIC
NC[C@H]1O[C@H](O[C@H]2[C@H](O)[C@@H](O[C@H]3O[C@H](CO)[C@@H](O)[C@H](N)[C@H]3O)[C@H](N)C[C@@H]2N)[C@H](N)C[C@@H]1O [TOBRAMYCIN]	2 µg/mL (≈ 4.28 µM)
